Experimental data: paper PMC8092876, “A Leucyl-tRNA Synthetase Inhibitor with Broad-Spectrum Antimycobacterial Activity” (Antimicrobial Agents and Chemotherapy, 2021)
≈ marks a conversion by molar mass, not a printed value. Where “and” joins values, the source holds several entries; their conditions need not be identical. Identical values can stand only once. Like-named read-outs stand apart in the source and are kept apart here.

Columns and labels:
[1] = tested on: M. abscessus Bamboo biofilms; experiment: Biofilm growth inhibition assay (biofilm MIC and MBC); format: cell-based, M. abscessus subsp. abscessus; settings: Mycobacteroides abscessus
Description: The biofilm growth inhibition assay was performed as previously described ([40]). Innovotech MBEC 96-well biofilm assay plates (Innovotech 19111, Edmonton, AB, Canada) were used, and the supplier’s manual was followed with minor modifications. Mid-log-phase M. abscessus Bamboo precultures (OD600 = 0.4 to 0.6) were spun down at 3200 × g for 10 min at 25°C and washed with 7H9 medium without Tween 80 (7H9nt). Bacteria were resuspended into 25 ml 7H9nt to an OD600 of 0.0125 (1.0 × 10^6 CFU/ml). […] The lids with the pegs were transferred to a new MBEC multititer plate containing 150 μl of fresh 7H9nt medium per well without bacteria (0 h time point). After that, the pegs with growing biofilm were transferred once a day to a new multititer plate containing fresh 7H9nt medium. To measure growth of the biofilm formed on the peg, the pegs were washed in 200 μl of 7H9nt medium before they were aseptically removed and placed in 1.7 ml microcentrifuge tubes (VWR 87003-294, Rador, PA, United States) containing 500 μl PBS/Tween 80. The microcentrifuge tubes were vigorously vortexed at 2,000 rpm for 90 s at 25°C to detach the bacteria from the pegs before samples were serially diluted and plated for the determination of CFU/peg. […] The average drug-free biofilm growth was calculated by subtracting the average 24 h CFU/peg value from the average 72 h CFU/peg value for the untreated control pegs. The biofilm MIC was defined as the lowest drug concentration that reduced the CFU/peg by 90% relative to that of the average drug-free biofilm growth.

[2] = tested on: M. abscessus Bamboo; experiment: MIC and MBC determination in culture tubes (planktonic)
Description: M. abscessus Bamboo culture was grown to mid-log-phase (OD600 = 0.4 to 0.6) and diluted to OD600 = 0.1 (1 × 10^7 CFU/ml). Aliquots of 1.2 ml of the resulting bacteria suspension were transferred into 14 ml vented, round-bottom tubes (Thermo Fisher 150268, Rochester, NY, United States). A 10-point 2-fold dilution series of the compound was prepared, starting at 100 times the desired highest concentration. The compound concentration range tested was 100 to 0.195 μM. For each drug concentration tested, 12 μl of drug stock was added to two tubes and vortexed. Aliquots of 12 μl of DMSO were added to two tubes as the untreated controls (1% final DMSO concentration). From each tube, 200 μl was transferred to wells on a 96-well plate and the OD600 was measured using a Tecan Infinite M200 plate reader (day 0 reading). The tubes (1 ml final volume) were incubated on a tilted rack at 37°C on an orbital shaker at 220 rpm. On day 2, tubes were vortexed before transferring 200 μl onto a 96-well plate to measure the OD600 again (day 2 reading). To determine the MIC, day 0 and day 2 OD600 values were analyzed as previously described for MIC determination in 96-well plate format. To determine the MBC, CFU measurement was done for the OD600 = 0.1 bacteria suspension on day 0 and for each tube on day 2. Specifically, serial 10-fold dilutions were prepared in phosphate-buffered saline (Thermo Fisher 10010023) containing 0.025% Tween 80 (PBS/Tween 80) and plated on 7H10 agar. The MBC was defined as the lowest concentration of drug that reduced the CFU/ml value by 10-fold relative to the day 0 CFU/ml value.

[3] = tested on: M. abscessus subsp. bolletii CCUG 50184T; experiment: MIC assay in 96-well plate format; format: cell-based; settings: Mycobacteroides abscessus, culture collection reference strain
[4] = tested on: M. chimaera CCUG 50989T; experiment: MIC assay in 96-well plate format; format: cell-based; settings: CCUG50989T, culture collection reference strain
[5] = tested on: M. avium 11; experiment: MIC assay in 96-well plate format; format: cell-based, M. avium subsp. hominissuis
[6] = tested on: M. abscessus Bamboo RM3 (LeuS V417M); experiment: microbe, parasite or virus in culture; format: cell-based; settings: Mycobacteroides abscessus, RM3, batch 1, LeuS V417M
[7] = tested on: M. abscessus subsp. abscessus M9; experiment: MIC assay in 96-well plate format; format: cell-based; settings: Mycobacteroides abscessus; M. abscessus subsp. abscessus M9, clinical isolate
[8] = tested on: M. abscessus Bamboo RM2 (LeuS K502E); experiment: microbe, parasite or virus in culture; format: cell-based; settings: Mycobacteroides abscessus
[9] = tested on: M. abscessus subsp. massiliense M111; experiment: MIC assay in 96-well plate format; format: cell-based; settings: Mycobacteroides abscessus; M. abscessus subsp. massiliense M111, clinical isolate
[10] = tested on: M. abscessus subsp. abscessus K21; experiment: MIC assay in 96-well plate format; format: cell-based; settings: Mycobacteroides abscessus; M. abscessus subsp. abscessus K21, clinical isolate, infection model
[11] = tested on: M. abscessus subsp. massiliense CCUG 48898T; experiment: MIC assay in 96-well plate format; format: cell-based; settings: Mycobacteroides abscessus, culture collection reference strain
[12] = tested on: M. abscessus subsp. bolletii M232; experiment: MIC assay in 96-well plate format; format: cell-based; settings: Mycobacteroides abscessus; M. abscessus subsp. bolletii M232, clinical isolate
[13] = tested on: M. intracellulare ATCC 13950; experiment: MIC assay in 96-well plate format; format: cell-based; settings: Mycobacterium intracellulare, ATCC13950; M. intracellulare ATCC 13950, culture collection reference strain
[14] = tested on: M. abscessus Bamboo RM1 (LeuS A428P); experiment: microbe, parasite or virus in culture; format: cell-based; settings: Mycobacteroides abscessus
[15] = tested on: M. abscessus subsp. abscessus M404; experiment: MIC assay in 96-well plate format; format: cell-based; settings: Mycobacteroides abscessus; M. abscessus subsp. abscessus M404, clinical isolate
[16] = tested on: M. abscessus subsp. abscessus M422; experiment: MIC assay in 96-well plate format; format: cell-based; settings: Mycobacteroides abscessus; M. abscessus subsp. abscessus M422, clinical isolate
[17] = tested on: M. abscessus subsp. abscessus M199; experiment: MIC assay in 96-well plate format; format: cell-based; settings: Mycobacteroides abscessus; M. abscessus subsp. abscessus M199, clinical isolate
[18] = tested on: M. abscessus subsp. bolletii M506; experiment: MIC assay in 96-well plate format; format: cell-based; settings: Mycobacteroides abscessus; M. abscessus subsp. bolletii M506, clinical isolate
[19] = tested on: M. abscessus subsp. abscessus ATCC 19977; experiment: MIC assay in 96-well plate format; format: cell-based; settings: Mycobacteroides abscessus, ATCC19977; M. abscessus subsp. abscessus ATCC 19977, culture collection reference strain
[20] = tested on: M. abscessus Bamboo RM4 (LeuS T327R); experiment: microbe, parasite or virus in culture; format: cell-based; settings: Mycobacteroides abscessus
[21] = tested on: M. abscessus Bamboo; experiment: MIC assay in 96-well plate format; format: cell-based, M. abscessus subsp. abscessus; settings: Mycobacteroides abscessus
[22] = tested on: M. abscessus Bamboo RM5 (LeuS V417M); experiment: microbe, parasite or virus in culture; format: cell-based; settings: Mycobacteroides abscessus, RM5, batch 2, LeuS V417M
[23] = tested on: M. abscessus subsp. abscessus M337; experiment: MIC assay in 96-well plate format; format: cell-based; settings: Mycobacteroides abscessus; M. abscessus subsp. abscessus M337, clinical isolate
[24] = tested on: M. tuberculosis H37Rv ATCC 27294; design: method as in PMID 28953378; settings: 7H9; cited from earlier work
[25] = tested on: M. tuberculosis H37Rv ATCC 27294; experiment: MIC assay in 96-well plate format; format: cell-based; settings: Mycobacterium tuberculosis, 168 h

For CC[C@H]1OC(=O)[C@H](C)[C@@H](O[C@H]2C[C@@](C)(OC)[C@@H](O)[C@H](C)O2)[C@H](C)[C@@H](O[C@@H]2O[C@H](C)C[C@H](N(C)C)[C@H]2O)[C@](C)(OC)C[C@@H](C)C(=O)[C@H](C)[C@@H](O)[C@]1(C)O [CLR, clarithromycin, reference compound], the MBC ([1]; 10-fold CFU/peg reduction vs 24 h) was > 100 µM, the MIC ([1]; 48 h with drug, 90% reduction of CFU/peg growth) was 1.6 µM (≈ 1.2 µg/mL) and the MBC ([2]; Mycobacteroides abscessus) was > 100 µM. For the same compound, the MIC ([2]; Mycobacteroides abscessus, 48 h) was 0.28 µM (≈ 0.209 µg/mL), the MBC ([2]; planktonic M. abscessus Bamboo in culture tubes, day 2, 10-fold CFU/ml reduction vs day 0) was >100 µM and the MIC [3] was 2.5 µM (≈ 1.87 µg/mL). For the same compound, the MIC [4] was 0.19 µM (≈ 0.142 µg/mL), the MIC ([5]; Mycobacterium avium, 96 h, M. avium 11, 7H9, 4 days, read-out: MIC) was 0.3 µM (≈ 0.224 µg/mL) and the MIC [6] was 0.43 µM (≈ 0.322 µg/mL). For the same compound, the MIC [7] was 0.73 µM (≈ 0.546 µg/mL), the MIC [8] was 0.38 µM (≈ 0.284 µg/mL) and the MIC [9] was 0.24 µM (≈ 0.18 µg/mL). The MIC [10] was 0.4 µM (≈ 0.299 µg/mL), the MIC [11] was 0.19 µM (≈ 0.142 µg/mL) and the MIC [12] was 0.95 µM (≈ 0.711 µg/mL). It also gave an MIC [13] of 0.15 µM (≈ 0.112 µg/mL), an MIC [14] of 0.36 µM (≈ 0.269 µg/mL) and an MIC [15] of 0.2 µM (≈ 0.15 µg/mL). It also gave an MIC [16] of 0.65 µM (≈ 0.486 µg/mL), an MIC [17] of 2.7 µM (≈ 2.02 µg/mL) and an MIC [18] of 0.28 µM (≈ 0.209 µg/mL). The MIC [19] was 0.9 µM (≈ 0.673 µg/mL), the MIC [20] was 0.42 µM (≈ 0.314 µg/mL) and the MIC [21] was 0.31 µM (≈ 0.232 µg/mL). It also gave an MIC ([21]; 72 h, M. abscessus Bamboo, 7H9, 3 days, read-out: MIC) of 0.23 µM (≈ 0.172 µg/mL), an MIC ([21]; 72 h, M. abscessus Bamboo, CAMH broth, 3 days, read-out: MIC) of 0.07 µM (≈ 0.0524 µg/mL) and an MIC [22] of 0.46 µM (≈ 0.344 µg/mL). For the same compound, the MIC [23] was 0.9 µM (≈ 0.673 µg/mL).
For NC[C@H]1OB(O)c2c(OCCO)ccc(Cl)c21 [GSK656, (S)-3-(aminomethyl)-4-chloro-7–(2-hydroxyethoxy)benzo[c][1,2]oxaborol-1(3H)-ol], the MIC ([5]; Mycobacterium avium, 11, 96 h) is given as > 50 µM, the MIC [24] is given as 0.08 μM and 0.08^d μM and the MIC ([21]; 72 h, read-out: MIC) is given as 0.27 µM (≈ 0.0695 µg/mL).
In the case of CO[C@H]1/C=C/O[C@@]2(C)Oc3c(C)c(O)c4c(O)c(c(/C=N/N5CCN(C)CC5)c(O)c4c3C2=O)NC(=O)/C(C)=C\C=C\[C@H](C)[C@H](O)[C@@H](C)[C@@H](O)[C@@H](C)[C@H](OC(C)=O)[C@@H]1C [rifampin, reference compound], the MIC [25] is reported as 0.66 µM (≈ 0.543 µg/mL).
